A short description of series [1]: In vitro cytotoxic assay, Caco-2. Note: 0.1-25 µM tested. The format is cell-based. As to conditions: human, Caco-2 cells (colon cancer cell line). How it is done:
(§1) Skin normal fibroblastic cells were purchased from Lonza (Basel, Switzerland). […] All culture media were supplemented by 10% of FBS, 1% of penicillin–streptomycin and 2 mM glutamine.
(§2) Chemicals were solubilized in DMSO at a concentration of 10 mM (stock solution) and diluted in culture medium to the desired final concentrations. […] Cells were plated in 96-well plates (4000 cells/well). Twenty-four hours after seeding, the cells were exposed to chemicals. […] Image acquisition and analysis were performed using a Cellomics ArrayScan VTI/HCS Reader (ThermoScientific, Les Ulis, France). The survival percentages were calculated as the percentage of cell number after compound treatment over cell number after DMSO treatment. The relative IC50 values were calculated using the curve fitting XLfit 5.5.0.5 (idbs) integrated in Microsoft Excel as an add-on.
(§3) 4.3.1. Cell culture. Skin normal fibroblastic cells are purchased from Lonza (Basel, Switzerland). Huh7- […]
(§4) from ATCC (American Type Culture Collection). […]
(§5) supplemented by 10% of FBS, 1% of penicillin-streptomycin and 2 mM glutamine.
(§6) 4.3.2. Cytotoxic assay. Chemicals were solubilized in DMSO at a concentration of 10 mM (stock solution) and diluted in culture medium to the desired final concentrations. The dose effect cytotoxic assays (IC50 determination) were performed by increasing the concentrations of each chemical (final well […]
(§7) Cells were plated in 96-well plates
(§8) (4000 cells/well). Twenty-four hours after seeding, cells were exposed to chemicals. After 48h of treatment, cells were washed in PBS and fixed in cooled 90% ethanol/5% acetic acid for 20 min and the […]
(§9) Image acquisition and analysis were performed using a Cellomics ArrayScan VTI/HCS Reader (ThermoScientific). The survival percentages were calculated as the percentage of cell number after compound treatment over cell number after DMSO treatment. The relative IC50 were calculated using the curve fitting XLfit 5.5.0.5 (idbs) integrated in Microsoft Excel as an add-on. The 4 Parameter Logistic Model or Sigmoidal Dose-Response Model describing the sigmoid-shaped response pattern was used (fit = (A+[(B-A)/(1+[(C/x)^D])]) where fit is the response and X is the tested concentration of the compound. The lower asymptote is A (also referred to as the bottom of the curve or lower plateau or the min) and the upper asymptote is B (also referred to as the top of the curve or upper plateau or the max). The slope of the linear part of the curve is described by the factor D. The parameter C is the concentration corresponding to the response midway between A and B. C is called “relative IC50” because it refers to the maximum response obtained by a […]
(§10) The results are represented as the mean ± standard error (SE) calculated from at least three independent experiments.

The nature of series [2]: In vitro cytotoxic assay, MCF-7. Note: 0.1-25 µM tested. The format is cell-based. As to conditions: human, MCF-7 cells (breast cancer cell line). How it is done:
as §1, §2, §3, §4, §5, §6, §7, §8, §9, §10

Series [3] is described as follows: In vitro cytotoxic assay, MDA-MB-468. As to conditions: human, MDA-MB-468 cells (breast cancer cell line); read-out: In vitro cytotoxic activity IC50, MBA-MB4-68. The format is cell-based. How it is done: as §1, §2, §3, §4, §5, §6, §7, §8, §9, §10
The nature of series [4]: In vitro cytotoxic assay, PC-3. Note: 0.1-25 µM tested. Format: cell-based. To be noted: human, PC-3 cells (prostate cancer cell line). How it is done: as §1, §2, §3, §4, §5, §6, §7, §8, §9, §10
Another series deals with seven tumor cell lines. Description: In vitro cytotoxic assay, whole panel of cancer cell lines. The format is cell-based, human. To be noted: 48 h; for pIC50: Homo sapiens, lowest to highest IC50 among the seven cancer cell lines, read-out: IC50 span over the cancer cell lines. How it is done:
as §1, §2, §3, §4, §5, §6, §7, §8, §9, §10

Another series concerns DYRK1A. To be noted: in Figure 3; cited from earlier work.

pIC50: −log10 of the molar value.

For orientation: IC50 means the midpoint of a concentration-inhibition curve. By pIC50 is commonly meant the IC50 on a negative log10 scale, so that one unit is a factor of ten. Regarding `COC(=N)c1nc2cc3c(=O)n(Cc4ccccc4)cnc3cc2s1` [Compound 6a, Methyl 7-benzyl-8-oxo-7,8-dihydrothiazolo[4,5-g]quinazoline-2-carbimidate], the IC50 at 48 h in series [1] was found to be 17 µM; in series [2], 17 µM; in series [3], 19 µM; in series [4] it was 20 µM. In addition, in the series with seven tumor cell lines, the negative logarithm of the IC50 (pIC50) is 4.57 to 4.77.

As to `COC(=N)c1nc2cc3ncn(Cc4ccccc4)c(=O)c3cc2s1` [Compound 6b, Methyl 7-benzyl-8-oxo-7,8-dihydrothiazolo[5,4-g]quinazoline-2-carbimidate], the half-inhibitory concentration (IC50) at 48 h in series [1] came to 2 µM; in series [2], 1 µM; in series [3] it was 1 µM; in series [4], 2 µM. Also, in the series with seven tumor cell lines, the pIC50 is 5.52 to 6.00.

Take `COC(=N)c1nc2c(ccc3c(=O)n(Cc4ccccc4)cnc32)s1` [Compound 6c, Methyl 7-benzyl-6-oxo-6,7-dihydrothiazolo[5,4-h]quinazoline-2-carbimidate]: the IC50 at 48 h in series [1] worked out at 6 µM; in series [2], 7 µM; in series [3], 13 µM; in series [4] it was 8 µM. Further, the negative logarithm of the IC50 (pIC50) in the series on seven tumor cell lines was 4.89 to 5.52.

For the compound `COC(=N)c1nc2ccc3c(=O)n(Cc4ccccc4)cnc3c2s1` [Compound 6d, Methyl 7-benzyl-6-oxo-6,7-dihydrothiazolo[4,5-h]quinazoline-2-carbimidate], the IC50 at 48 h is 10 µM in series [1], 8 µM in series [2], 5 µM in series [3] and 10 µM in series [4]. In addition, in the series on seven tumor cell lines, the pIC50 was 4.96 to 5.70.

As for `COC(=N)c1nc2cc3c(Nc4ccc(OC)cc4F)ncnc3cc2s1` [Compound 15a, Methyl 8-[(2-fluoro-4-methoxyphenyl)amino]thiazolo[4,5-g]quinazoline-2-carbimidate], the IC50 at 48 h in series [2] is more than 25 µM.

Turning to `COC(=N)c1nc2cc3ncnc(Nc4ccc(OC)cc4F)c3cc2s1` [Compound 15b, Methyl 8-[(2-fluoro-4-methoxyphenyl)amino]thiazolo[5,4-g]quinazoline-2-carbimidate], in the series on seven tumor cell lines (0.1-25 μM), the “Cytotoxicity over the cell lines studied (in words)” value is “did not show detectable cytotoxicity”.

Regarding `COC(=N)c1nc2ccc3ncn(Cc4ccccc4)c(=O)c3c2s1` [Compound I, methyl 8-benzyl-9-oxo-8,9-dihydrothiazolo[5,4-f]quinazoline-2-carbimidate, reference compound], the concentration for half-maximal inhibition (IC50) at 48 h in series [1] came to 12 µM; in series [2], 17 µM; in series [3], 21 µM; in series [4], 20 µM. In addition, in the series with DYRK1A, the pIC50 was 6.52.

Turning to `COC(=N)c1nc2ccc3ncnc(Nc4ccc(OC)cc4F)c3c2s1` [Compound II, methyl 9-[(2-fluoro-4-methoxyphenyl)amino]thiazolo[5,4-f]quinazoline-2-carbimidate, reference compound], the IC50 at 48 h in series [1] came out at 3 µM; in series [2] it was 5 µM; in series [3] it was 9 µM; in series [4], 4 µM. Further, the negative-log IC50 (pIC50) in the series with DYRK1A was 9.44.

The values are drawn from PMC11597202, “Novel Thiazole-Fused [4,5-g] or [5,4-g]Quinazolin-8-ones and Their Quinazoline Analogues: Synthesis and Biological Evaluation” (Pharmaceuticals, 2024).
